Laboratory results taken from patent publication US5583108A, “Vasonatrin peptide and analogs thereof” (Mayo Foundation for Medical Education and Research, priority 1994, dated 1996).
“Also recorded” adds a separate entry of the source.

How the values were obtained:
[1] = tested on: isolated normal canine blood vessels; test: Organ chamber isometric force: relaxation of phenylephrine-contracted vessel rings; parameters: species or system dog; settings: for relaxation: maximal dose (3×10^-6 M); for maximal response, percent change in tension from a contraction to phenylephrine: peptide 3 × 10^-6 M, mean ± SEM
Description: (§1) The results obtained are expressed as the means ±SEM. In organ chamber studies, n equals the number of dogs from which rings were taken. Rings with and without endothelium were studied in parallel, and Student's t-test for unpaired observations was used to determine statistical significance among the responses of rings with and without endothelium and between responses of arteries and veins. In rat studies, the data were analyzed using ANOVA for repeated measures followed by Fisher's least significant difference test when appropriate within the group. Data between groups were analyzed by Student's unpaired t-test. Statistical significance was determined at p<0.05.
Rings cut from femoral, saphenous, renal and pulmonary arteries and veins obtained from random source mongrel dogs (anesthetized with 30 mg/kg pentobarbital sodium intravenously) were suspended for the measurement of isometric force in organ chambers filled with aerated (95% O2 and 5% CO2) modified Krebs-Ringer bicarbonate solution (composition in mM: 118.3 NaCl, 4.7 KCl, 2.5 CaCl2, 1.2 MgSO4, 1.2 KH2 PO4, 25.0 NaHCO3, 0.026 calcium sodium EDTA, and 11.1 dextrose; control solution) at 37° C. In one-half rings, the endothelium was removed by gently rubbing the intimal surface with a cotton swab wetted with control solution. Each ring was stretched to the optimal point on its length-tension curve as determined by the tension developed to norepinephrine (3×10^-7 M) at each level of stretch. The presence of endothelium was determined at the beginning of the experiment by a relaxation to acetylcholine (10^-6 M) during a contraction to norepinephrine at optimal length. The maximal tension of each ring was determined by norepinephrine (10^-4 M). To study responses to ANP, CNP and VNP, the rings were contracted with phenylephrine (10^-6 M). These contractions averaged 30-40% of the maximal contraction to norepinephrine. The peptides were added cumulatively once the contraction had stabilized.
The following commercially available drugs were used: acetylcholine chloride (Sigma Chemical, St. Louis, Mo.), human ANP and human CNP (Peninsula Laboratories, Belmont, Calif.), L-norepinephrine bitartrate (Sigma), phenylephrine bitartrate (Sigma). All drugs were dissolved in distilled water immediately prior to study, and the concentrations are reported as the final molar concentration (M) in the organ chamber.

normal rats = test: Cardiorenal actions after intravenous bolus in anesthetized normal rats; type: in vivo, Wistar rats; settings: for MAP mean arterial pressure / HR heart rate / RAP right atrial pressure / UKV urine potassium excretion / UNaV urine sodium excretion / UV urine volume / UcGMPV urine cGMP volume / PcGMP plasma cGMP: mean ± SEM; for MAP mean arterial pressure: n = 4
Description: as §1
Experiments were conducted in accordance with the Animal Welfare Act. Wistar rats and spontaneously hypertensive rats (SHR) (400 g; Harlan Sprague-Dawley, Indianapolis, Ind.) were anesthetized with Inactin (100 mg/kg; intraperitoneal; BYK Gulden, Konstanz, Germany). The body temperature was maintained between 36° and 38° C. by a heating pad. Tracheostomy was performed; however, the animals were not artificially ventilated. Polyethylene catheters (PE-50; Becton Dickinson Co., Parsippany, N.J.) were placed in the left Jugular vein for infusions of saline and drugs, in the right jugular vein to right atrium to monitor right atrial pressure, and in the carotid artery for the collection of blood samples and to monitor mean arterial pressure. A PE-90 catheter was placed in the bladder for urine collection.
Experiments were conducted in three groups in normal rats: ANP group (n=4), CNP group (n=4), and VNP group (n=4). VNP also was studied in SHR rats (n=4). Intravenous infusions of saline solution (0.9% NaCl) were performed (1 ml/100 gm body weight/hr) through the left jugular vein catheter. After completion of surgery, rats were allowed to stabilize for 30 minutes. In each group, a 15-min baseline period followed. After the baseline period, saline solution (0.9% NaCl) was administered in a bolus fashion (0.1 ml) and was followed by a 15-min period. After the saline period, the peptide (ANP, CNP or VNP) was administered in a bolus fashion (0.1 ml) at 5 μg/kg which was followed by a 15-min period. This was followed by a second bolus (0.1 ml) at 50 μg/kg and a 15-min period. After a 30-min washout, a 15-min recovery period followed. During each experimental period, mean arterial pressure (MAP), heart rate (HR), and right atrial pressure (RAP) were measured. At the midpoint of baseline, second bolus fashion (50 μg/kg) and recovery periods, blood was sampled for plasma cGMP. At the end of each period, urine was measured for volume (UV), and samples were stored for electrolytes and cGMP analysis.
Blood for plasma cGMP analysis was collected into EDTA tubes, immediately placed on ice, and centrifuged at […] at 4° C. Plasma was separated and stored at -20° C. until assay. Urine for cGMP determination was heated to >90° C. before storage. Plasma and urine cGMP were determined by a specific RIA as previously described by A. L. Steiner et al., J. Hypertension, 5 (Suppl. 5) 551-553 (1987).

[2] = tested on: isolated vessels in congestive heart failure dogs; test: Preliminary studies: vasorelaxation in isolated vessels of congestive heart failure dogs; parameters: species or system dog
[3] = tested on: vessels pre-contracted with endothelin; test: Relaxation of vessels pre-contracted with endothelin
[4] = normal rats, high dose (50 μg/kg) bolus

CC[C@H](C)[C@@H]1NC(=O)[C@H](CCCNC(=N)N)NC(=O)[C@H](CC(=O)O)NC(=O)[C@H](CC(C)C)NC(=O)[C@H](CCCCN)NC(=O)[C@H](CC(C)C)NC(=O)CNC(=O)[C@H](Cc2ccccc2)NC(=O)[C@@H](NC(=O)CNC(=O)[C@H](CCCCN)NC(=O)[C@H](CO)NC(=O)[C@H](CC(C)C)NC(=O)CN)CSSC[C@@H](C(=O)N[C@@H](CC(N)=O)C(=O)N[C@@H](CO)C(=O)N[C@@H](Cc2ccccc2)C(=O)N[C@@H](CCCNC(=N)N)C(=O)N[C@@H](Cc2ccc(O)cc2)C(=O)O)NC(=O)CNC(=O)[C@H](CC(C)C)NC(=O)CNC(=O)[C@H](CO)NC(=O)[C@H](CCSC)NC(=O)[C@H](CO)NC(=O)CNC1=O [VNP, vasonatrin peptide]
relaxation ([1]; femoral and saphenous arteries): 90-100% | maximal response, percent change in tension from a contraction to phenylephrine ([1]; femoral artery, with endothelium, phenylephrine 10^-6 M): 91 ± 4% | maximal response, percent change in tension from a contraction to phenylephrine ([1]; femoral artery, without endothelium): 89 ± 5% | maximal response, percent change in tension from a contraction to phenylephrine ([1]; femoral vein, with endothelium): 81 ± 6% | maximal response, percent change in tension from a contraction to phenylephrine ([1]; femoral vein, without endothelium): 86 ± 6% | relaxation ([1]; femoral veins): 90% | order of potency ([1]; pulmonary arteries): ANP=VNP>CNP | maximal response, percent change in tension from a contraction to phenylephrine ([1]; pulmonary artery, with endothelium): 57 ± 5% | maximal response, percent change in tension from a contraction to phenylephrine ([1]; pulmonary artery, without endothelium): 63 ± 7% | maximal response, percent change in tension from a contraction to phenylephrine ([1]; pulmonary vein, with endothelium): 71 ± 2% | maximal response, percent change in tension from a contraction to phenylephrine ([1]; pulmonary vein, without endothelium): 84 ± 3% | order of potency ([1]; pulmonary veins without endothelium): VNP>CNP>ANP | maximal response, percent change in tension from a contraction to phenylephrine ([1]; renal artery, with endothelium): 52 ± 4% | maximal response, percent change in tension from a contraction to phenylephrine ([1]; renal artery, without endothelium): 62 ± 12% | maximal response, percent change in tension from a contraction to phenylephrine ([1]; renal vein, with endothelium): 65 ± 6% | maximal response, percent change in tension from a contraction to phenylephrine ([1]; renal vein, without endothelium): 90 ± 4% | maximal response, percent change in tension from a contraction to phenylephrine ([1]; saphenous artery, with endothelium): 73 ± 3% | maximal response, percent change in tension from a contraction to phenylephrine ([1]; saphenous artery, without endothelium): 81 ± 5% | maximal response, percent change in tension from a contraction to phenylephrine ([1]; saphenous vein, with endothelium): 60 ± 11% | maximal response, percent change in tension from a contraction to phenylephrine ([1]; saphenous vein, without endothelium): 89 ± 6% | relaxation ([1]; saphenous veins): 90% | potency for relaxation (order) ([1]; systemic arteries): VNP>ANP≥CNP | relaxation, % of the contraction to phenylephrine ([1]; systemic arteries (femoral, saphenous and renal)): 50-90% | potency for relaxation (order) ([1]; systemic veins): VNP>CNP>ANP | natriuretic action (in words) (normal rats; in vivo, rat): potent natriuretic effect | change in MAP and RAP (in words) (normal rats; [4]): significant decrease; also recorded: significantly decreased | change in urine flow, sodium excretion, plasma cGMP and urinary cGMP volume (in words) (normal rats; [4]): significantly increased | increase in urine flow, sodium excretion and urinary cGMP volume compared between peptides (normal rats; [4]): significantly higher with VNP than those of CNP, but were less than those of ANP | MAP mean arterial pressure (normal rats; normal rats, iv bolus 5 μg/kg, 15-min period): 93 ± 15 mmHg | HR heart rate (normal rats; normal rats, iv bolus 5 μg/kg): 393 ± 20 beats/min | RAP right atrial pressure (normal rats; normal rats, iv bolus 5 μg/kg): -3.5 ± 0.9 mmHg | UKV urine potassium excretion (normal rats; normal rats, iv bolus 5 μg/kg): 3.3 ± 1.4 µmol/min | UNaV urine sodium excretion (normal rats; normal rats, iv bolus 5 μg/kg): 5.3 ± 1.9 µmol/min | UV urine volume (normal rats; normal rats, iv bolus 5 μg/kg): 32.2 ± 7.5 µL/min | UcGMPV urine cGMP volume (normal rats; normal rats, iv bolus 5 μg/kg): 113 ± 27 pmol/min | HR heart rate (normal rats; normal rats, iv bolus 50 μg/kg): 408 ± 25 beats/min | PcGMP plasma cGMP (normal rats; normal rats, iv bolus 50 μg/kg): 33.3 ± 8.7 pmol/mL | RAP right atrial pressure (normal rats; normal rats, iv bolus 50 μg/kg): -4.3 ± 0.8 mmHg | UKV urine potassium excretion (normal rats; normal rats, iv bolus 50 μg/kg): 11.9 ± 4.7 µmol/min | UNaV urine sodium excretion (normal rats; normal rats, iv bolus 50 μg/kg): 22.5 ± 2.2 µmol/min | UV urine volume (normal rats; normal rats, iv bolus 50 μg/kg): 136 ± 5.5 µL/min | UcGMPV urine cGMP volume (normal rats; normal rats, iv bolus 50 μg/kg): 961 ± 82 pmol/min | MAP mean arterial pressure (normal rats; normal rats, recovery period after 30-min washout): 93 ± 15 mmHg | HR heart rate (normal rats; normal rats, recovery period): 390 ± 20 beats/min | PcGMP plasma cGMP (normal rats; normal rats, recovery period): 4.4 ± 1.4 pmol/mL | RAP right atrial pressure (normal rats; normal rats, recovery period): -2.9 ± 0.9 mmHg | UKV urine potassium excretion (normal rats; normal rats, recovery period): 1.3 ± 0.6 µmol/min | UNaV urine sodium excretion (normal rats; normal rats, recovery period): 0.9 ± 0.3 µmol/min | UV urine volume (normal rats; normal rats, recovery period): 8.4 ± 2.7 µL/min | UcGMPV urine cGMP volume (normal rats; normal rats, recovery period): 88 ± 48 pmol/min | MAP mean arterial pressure (normal rats; normal rats, second iv bolus 50 μg/kg, 15-min period): 79 ± 15 mmHg | vasorelaxing actions (in words) [2]: potent vasorelaxing actions | relaxation of pre-contracted vessels (in words) [3]: able to relax
